According to US10166216B2 (Rigel Pharmaceuticals, Inc., priority 2006, dated 2019):

target: Axl (Homo sapiens (Human), UniProt P30530); assay: Phospho-Akt in-cell Western assay (Axl-antibody cross-linking stimulation); assay type: cell-based; details: inhibition of Axl activity, Hela cells, phospho-Akt readout; Table 5, formula (Ia3)
Procedure, shortened: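 HeLa cells on poly-L-lysine, starved 24 hrs with Axl/Fc, pre-treated with compound 1 hr at 37° C., then stimulated 5 min with Axl primary/secondary antibody cluster. Fixed cells probed for phospho-Akt by chemiluminescent in-cell Western; signal normalized to crystal violet cell number.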

Chain of Axl (P30530 26-894): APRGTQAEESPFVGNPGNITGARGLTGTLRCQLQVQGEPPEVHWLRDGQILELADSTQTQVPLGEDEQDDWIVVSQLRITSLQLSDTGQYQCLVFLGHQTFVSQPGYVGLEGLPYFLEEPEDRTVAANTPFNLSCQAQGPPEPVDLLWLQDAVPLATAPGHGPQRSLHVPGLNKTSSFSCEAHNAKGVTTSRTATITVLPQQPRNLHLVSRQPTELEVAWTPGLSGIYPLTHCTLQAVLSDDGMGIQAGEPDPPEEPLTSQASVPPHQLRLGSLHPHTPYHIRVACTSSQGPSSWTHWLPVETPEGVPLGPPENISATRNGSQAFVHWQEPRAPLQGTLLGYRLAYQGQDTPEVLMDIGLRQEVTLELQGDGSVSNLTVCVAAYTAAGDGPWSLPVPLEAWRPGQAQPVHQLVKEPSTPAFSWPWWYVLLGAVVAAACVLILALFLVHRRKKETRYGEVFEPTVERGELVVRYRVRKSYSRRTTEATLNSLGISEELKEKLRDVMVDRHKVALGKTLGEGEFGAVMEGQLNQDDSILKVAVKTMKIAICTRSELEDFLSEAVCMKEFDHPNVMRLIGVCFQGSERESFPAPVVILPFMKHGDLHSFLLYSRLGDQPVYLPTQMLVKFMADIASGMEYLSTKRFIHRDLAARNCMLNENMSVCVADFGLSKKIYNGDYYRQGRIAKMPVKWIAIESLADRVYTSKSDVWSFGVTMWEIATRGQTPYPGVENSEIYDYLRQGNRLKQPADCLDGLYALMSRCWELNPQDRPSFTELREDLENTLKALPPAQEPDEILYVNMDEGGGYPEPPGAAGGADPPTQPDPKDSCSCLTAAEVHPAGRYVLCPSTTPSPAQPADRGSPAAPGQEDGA

Compound | IC50 [nM]
CC(C)c1ccc(-n2nc(Nc3ccc(N4CCOCC4)cc3)nc2N)cc1 [Compound 218, 1-(4-isopropylphenyl)-N^3-(4-morpholinophenyl)-1H-1,2,4-triazole-3,5-diamine] | > 20000

same assay, conditions: inhibition of Axl activity, Hela cells, phospho-Akt readout; Table 7, formula (Ia4)

Compound | IC50 [nM]
Cc1csc2c(-n3nc(Nc4ccc5c(c4)CCC(N4CCCC4)CC5)nc3N)nc(Cl)nc12 (centres unmarked) [Compound 219, 1-(7-methyl-2-chlorothieno[3,2-d]pyrimidin-4-yl)-N^3-(7-pyrrolidin-1-yl-6,7,8,9-tetrahydro-5H-benzo[7]annulene-2-yl)-1H-1,2,4-triazole-3,5-diamine] | < 1000
COc1cc2ncnc(-n3nc(Nc4ccc5c(c4)CCC(N4CCCC4)CC5)nc3N)c2cc1OC (centres unmarked) [Compound 220, 1-(6,7-dimethoxy-quinazolin-4-yl)-N^3-(7-pyrrolidin-1-yl-6,7,8,9-tetrahydro-5H-benzo[7]annulene-2-yl)-1H-1,2,4-triazole-3,5-diamine] | < 1000
Cc1csc2c(-n3nc(Nc4ccc5c(c4)CCC(N(C)C4CC6CCC4C6)CC5)nc3N)nc(Cl)nc12 (centres unmarked) [Compound 221, 1-(7-methyl-2-chlorothieno[3,2-d]pyrimidin-4-yl)-N^3-(7-(N-methyl-N-bicyclo[2.2.1]heptan-2-yl)amino-6,7,8,9-tetrahydro-5H-benzo[7]annulene-2-yl)-1H-1,2,4-triazole-3,5-diamine] | < 1000
Cc1csc2c(-n3nc(Nc4ccc5c(c4)CCC(NC4CC6CCC4C6)CC5)nc3N)nc(Cl)nc12 (centres unmarked) [Compound 222, 1-(7-methyl-2-chlorothieno[3,2-d]pyrimidin-4-yl)-N^3-(7-(N-bicyclo[2.2.1]heptan-2-yl)amino-6,7,8,9-tetrahydro-5H-benzo[7]annulene-2-yl)-1H-1,2,4-triazole-3,5-diamine] | < 1000
COc1cc2ncnc(-n3nc(Nc4ccc5c(c4)CCC(NC4CC6CCC4C6)CC5)nc3N)c2cc1OC (centres unmarked) [Compound 223, 1-(6,7-dimethoxyquinazolin-4-yl)-N^3-(7-(N-bicyclo[2.2.1]heptan-2-yl)amino-6,7,8,9-tetrahydro-5H-benzo[7]annulene-2-yl)-1H-1,2,4-triazole-3,5-diamine] | < 1000
COc1cc2ncnc(-n3nc(Nc4ccc5c(c4)CCC(N(C)C4CC6CCC4C6)CC5)nc3N)c2cc1OC (centres unmarked) [Compound 224, 1-(6,7-dimethoxy-quinazolin-4-yl)-N^3-(7-(N-methyl-N-bicyclo[2.2.1]heptan-2-yl)amino-6,7,8,9-tetrahydro-5H-benzo[7]annulene-2-yl)-1H-1,2,4-triazole-3,5-diamine] | < 1000

same assay, conditions: inhibition of Axl activity, phospho-Akt in-cell Western assay

Compound | IC50 [nM]
Cc1cc(Nc2nc(N)n(-c3nnc(C)c4ccsc34)n2)ccc1N1CCN(C2CC3CCC2C3)CC1 (centres unmarked) [Compound 217, 1-(4-methylthieno[3,2-d]pyridazin-7-yl)-N^3-(3-methyl-4-(4-(bicyclo[2.2.1]heptan-2-yl)-piperazin-1-yl)phenyl)-1H-1,2,4-triazole-3,5-diamine] | < 1000
Cc1cc(Nc2nc(N)n(-c3nc(Cl)nc4c(C)csc34)n2)ccc1N1CCN(C2CC3CCC2C3)CC1 (centres unmarked) [Compound 225, 1-(7-methyl-2-chlorothieno[3,2-d]pyrimidin-4-yl)-N^3-(3-methyl-4-(4-(bicyclo[2.2.1]heptan-2-yl)piperazin-1-yl)phenyl)-1H-1,2,4-triazole-3,5-diamine] | < 1000
Cc1nnc(-n2nc(Nc3ccc(N4CCN([C@H]5C[C@@H]6CC[C@H]5C6)CC4)c(F)c3)nc2N)c2sccc12 [Compound 226, 1-(4-methylthieno[3,2-d]pyridazin-7-yl)-N^3-(3-fluoro-4-(4-((1S,2S,4R)-bicyclo[2.2.1]heptan-2-yl)piperazin-1-yl)phenyl)-1H-1,2,4-triazole-3,5-diamine] | < 1000
COc1ccc2nc(Cl)c(-n3nc(Nc4ccc(N5CCN([C@H]6C[C@@H]7CC[C@H]6C7)CC5)c(F)c4)nc3N)nc2c1 [Compound 227, 1-(2-chloro-6-methoxy-quinoxalin-3-yl)-N^3-(3-fluoro-4-(4-((1S,2S,4R)-bicyclo[2.2.1]heptan-2-yl)piperazin-1-yl)phenyl)-1H-1,2,4-triazole-3,5-diamine] | 1000 to 10000
COc1cc2c(C)nnc(-n3nc(Nc4ccc(N5CCN([C@H]6C[C@@H]7CC[C@H]6C7)CC5)c(F)c4)nc3N)c2cc1OC [Compound 228, 1-(6,7-dimethoxy-1-methylphthalazin-4-yl)-N^3-(3-fluoro-4-(4-((1S,2S,4R)-bicyclo[2.2.1]heptan-2-yl)piperazin-1-yl)phenyl)-1H-1,2,4-triazole-3,5-diamine] | > 20000
Nc1nc(Nc2ccc(N3CCN([C@H]4C[C@@H]5CC[C@H]4C5)CC3)c(F)c2)nn1-c1ccc(-c2ccccc2)nn1 [Compound 229, 1-(6-phenylpyridazin-3-yl)-N^3-(3-fluoro-4-(4-((1S,2S,4R)-bicyclo[2.2.1]heptan-2-yl)piperazin-1-yl)phenyl)-1H-1,2,4-triazole-3,5-diamine] | 1000 to 10000
Nc1nc(Nc2ccc(N3CCN([C@H]4CC5CCC4C5)CC3)c(F)c2)nn1-c1cc(-c2ccccc2)ccn1 (stereo partly drawn) [Compound 230, 1-(4-phenylpyridin-2-yl)-N^3-(3-fluoro-4-(4-((2S)-bicyclo[2.2.1]heptan-2-yl)piperazin-1-yl)phenyl)-1H-1,2,4-triazole-3,5-diamine] | 1000 to 10000
Cc1nnc(-n2nc(Nc3ccc(N4CCN([C@H]5CC6CCC5C6)CC4)c(Cl)c3)nc2N)c2sccc12 (some centres unmarked) [Compound 231, 1-(4-methylthieno[3,2-d]pyridazin-7-yl)-N^3-(3-chloro-4-(4-((2)S-bicyclo[2.2.1]heptan-2-yl)piperazin-1-yl)phenyl)-1H-1,2,4-triazole-3,5-diamine] | < 1000
Cc1cc(Nc2nc(N)n(-c3nnc(C)c4ccsc34)n2)ccc1N1CCN([C@H]2C[C@@H]3CC[C@H]2C3)CC1 [Compound 232, 1-(4-methylthieno[3,2-d]pyridazin-7-yl)-N^3-(3-methyl-4-(4-((1S,2S,4R)-bicyclo[2.2.1]heptan-2-yl)piperazin-1-yl)phenyl)-1H-1,2,4-triazole-3,5-diamine] | < 1000
Cc1cccc(-c2nc(-n3nc(Nc4ccc(N5CCN(C6CC7CCC6C7)CC5)cc4)nc3N)c3scc(C)c3n2)c1 (centres unmarked) [Compound 233, 1-(7-methyl-2-m-tolylthieno[3,2-d]pyrimidin-4-yl)-N^3-(4-(4-(bicyclo[2.2.1]heptan-2-yl)piperazin-1-yl)phenyl)-1H-1,2,4-triazole-3,5-diamine] | > 20000
Cc1csc2c(-n3nc(Nc4ccc(N5CCN(C6CC7CCC6C7)CC5)cc4)nc3N)nc(-c3cccc(C#N)c3)nc12 (centres unmarked) [Compound 234, 1-(7-methyl-2-(3-cyanophenyl)thieno[3,2-d]pyrimidin-4-yl)-N^3-(4-(4-(bicyclo[2.2.1]heptan-2-yl)piperazin-1-yl)phenyl)-1H-1,2,4-triazole-3,5-diamine] | < 1000
Cc1csc2c(-n3nc(Nc4ccc(N5CCN([C@H]6CC7CCC6C7)CC5)cc4)nc3N)nc(-c3ccccc3Cl)nc12 (stereo partly drawn) [Compound 235, 1-(7-methyl-2-(2-chlorophenyl)thieno[3,2-d]pyrimidin-4-yl)-N^3-(4-(4-((2S)-bicyclo[2.2.1]heptan-2-yl)piperazin-1-yl)phenyl)-1H-1,2,4-triazole-3,5-diamine] | 1000 to 10000
Cc1csc2c(-n3nc(Nc4ccc(N5CCN([C@H]6CC7CCC6C7)CC5)cc4)nc3N)nc(-c3ccc4c(c3)OCO4)nc12 (stereo partly drawn) [Compound 236, 1-(7-methyl-2-benzo[d][1,3]dioxole-5-ylthieno[3,2-d]pyrimidin-4-yl)-N^3-(4-(4-((2S)-bicyclo[2.2.1]heptan-2-yl)piperazin-1-yl)phenyl)-1H-1,2,4-triazole-3,5-diamine] | > 20000
Cc1csc2c(-n3nc(Nc4ccc(N5CCN([C@H]6CC7CCC6C7)CC5)cc4)nc3N)nc(-c3ccncc3)nc12 (stereo partly drawn) [Compound 237, 1-(7-methyl-2-pyridin-4-ylthieno[3,2-d]pyrimidin-4-yl)-N^3-(4-(4-((2S)-bicyclo[2.2.1]heptan-2-yl)piperazin-1-yl)phenyl)-1H-1,2,4-triazole-3,5-diamine] | < 1000
Cc1csc2c(-n3nc(Nc4ccc(N5CCN([C@H]6CC7CCC6C7)CC5)cc4)nc3N)nc(-c3cccc(NS(C)(=O)=O)c3)nc12 (stereo partly drawn) [Compound 238, 1-(7-methyl-2-(3-(methylsulfonyl)aminophenyl)thieno[3,2-d]pyrimidin-4-yl)-N^3-(4-(4-((2S)-bicyclo[2.2.1]heptan-2-yl)piperazin-1-yl)phenyl)-1H-1,2,4-triazole-3,5-diamine] | 1000 to 10000
Cc1csc2c(-n3nc(Nc4ccc(N5CCN([C@H]6CC7CCC6C7)CC5)cc4)nc3N)nc(C=CCN3CCCC3)nc12 (stereo partly drawn) [Compound 239, 1-(7-methyl-2-(3-(pyrrolidin-1-yl)prop-1-enyl)thieno[3,2-d]pyrimidin-4-yl)-N^3-(4-(4-((2S)-bicyclo[2.2.1]heptan-2-yl)piperazin-1-yl)phenyl)-1H-1,2,4-triazole-3,5-diamine] | 1000 to 10000
Cc1csc2c(-n3nc(Nc4ccc(N5CCN([C@H]6CC7CCC6C7)CC5)cc4)nc3N)nc(C=CCN3CCN(C)CC3)nc12 (stereo partly drawn) [Compound 240, 1-(7-methyl-2-(3-(4-methylpiperazin-1-yl)prop-1-enyl)thieno[3,2-d]pyrimidin-4-yl)-N^3-(4-(4-((2S)-bicyclo[2.2.1]heptan-2-yl)piperazin-1-yl)phenyl)-1H-1,2,4-triazole-3,5-diamine] | 1000 to 10000
Cc1csc2c(-n3nc(Nc4ccc(N5CCN([C@H]6CC7CCC6C7)CC5)cc4)nc3N)nc(/C=C/CN3CCOCC3)nc12 (stereo partly drawn) [Compound 241, 1-((E)-7-methyl-2-(3-(morpholin-4-yl)prop-1-enyl)thieno[3,2-d]pyrimidin-4-yl)-N^3-(4-(4-((2S)-bicyclo[2.2.1]heptan-2-yl)piperazin-1-yl)phenyl)-1H-1,2,4-triazole-3,5-diamine] | 1000 to 10000
Cc1csc2c(-n3nc(Nc4ccc(N5CCN([C@H]6C[C@@H]7CC[C@H]6C7)CC5)c(Cl)c4)nc3N)ncnc12 [Compound 242, 1-(7-methylthieno[3,2-d]pyrimidin-4-yl)-N^3-(3-chloro-4-(4-((1S,2S,4R)-bicyclo[2.2.1]heptan-2-yl)piperazin-1-yl)phenyl)-1H-1,2,4-triazole-3,5-diamine] | < 1000
